Measured values from US20110201620A1, “2-(3-AMINOARYL) AMINO-4-ARYL-THIAZOLES AND THEIR USE AS C-KIT INHIBITORS” (AB SCIENCE, priority 2002, published 2011).

Experiments:
[1] = test system: imatinib-resistant HMC-1 α155 cells; assay: Apoptosis assay by propidium iodide staining; format: cell-based, human; settings: 1 μM
Protocol: HMC-1 is a human mast cell line derived from a patient with mast cell leukaemia. The cell line used in this study, HMC-1 α155, is a clone derived from the original population expressing endogenous Kit bearing the mutation Val 560 to Gly. […] The medium used in this case was a RPMI medium containing L-glutamine (Cambrex cat# 12-702F) supplemented with 100 U/mL penicillin and 100 μg/mL streptomycin (Cambrex 100X penicilline/streptomycine mixture cat #17-602E), and with 10% v/v foetal calf serum (AbCys Lot S02823S1800) which has been previously heat-inactivated 30 minutes at 56° C. (RPMI 10). The medium containing the drugs was replaced with fresh one every 3-4 days. […] The principle behind the method for apoptosis assay by Propidium Iodide Staining (PI staining) is as follows: during apoptosis, DNA breakup causes small fragments of DNA to be free in the nucleus. Following appropriate elution with citrate buffer, these fragments are lost from the nucleus. As these cells now have a lower DNA content, subsequent staining with a DNA binding dye will reveal these cells in the sub-G1 region.
The % apoptosis represents the percentage of cells in apoptose with respect to overall cells.

[2] = Phase 2 clinical trial in advanced GIST, safety assessment; format: in vivo, human
Text: Methods; Patients: Patients enrolled in this study were aged over 18 years with inoperable, non-pretreated, histologically proven locally advanced or metastatic, c-Kit positive GIST. […] Exclusion criteria included: inadequate organ function defined via blood tests, severe liver or cardiac failure, and severe neurological or psychiatric disorders. Patients receiving a concomitant treatment within 4 weeks before inclusion, and pregnant or lactating women were also excluded. […] All adverse events (AEs), including abnormal serology or haematology, were recorded regardless of causality.

Human Kit exon 9 = settings: read-out: Cell proliferation assay (IC50) Human Kit exon 9; cited from earlier work
[3] = N = 30, Suspected: treatment related or not assessable

Cc1ccc(NC(=O)c2ccc(CN3CCN(C)CC3)cc2)cc1Nc1nc(-c2cccnc2)cs1 [Compound 066, 4-(4-methyl-piperazin-1-ylmethyl)-N-[4-methyl-3-(4-pyridin-3-yl-thiazol-2-ylamino)-phenyl]-benzamide]
% apoptosis (cells in apoptosis) [1]: More than 45% | patients reporting one grade 4 AE (skin exfoliation) ([2]; 1/30 patient): 3.3% | patients with treatment interruption for treatment-related haematological toxicity ([2]; 1/30 patient): 3% | patients with grade 3 treatment-related rash ([2]; 3/30 patients): 10% | patients experiencing serious adverse events (SAE) ([2]; 8/30 patients): 27% | patients with treatment interruption for non-haematological AEs ([2]; 13/30 patients): 43% | patients with at least one grade 3 treatment-related AE ([2]; 14/30 patients): 47% | patients with treatment interruption for more than 8 days ([2]; 16/30 patients): 53.3% | patients with treatment-related oedemas (all types) ([2]; 21/30 patients): 70% | patients reporting at least one treatment-related AE ([2]; ITT population): All patients | treatment-related toxicity per patient: abdominal pain ([2]; ITT population): 33% | treatment-related toxicity per patient: asthenia ([2]; ITT population): 83% | treatment-related toxicity per patient: cutaneous rash ([2]; ITT population): 40% | treatment-related toxicity per patient: diarrhoea ([2]; ITT population): 57% | treatment-related toxicity per patient: eye oedema ([2]; ITT population): 47% | treatment-related toxicity per patient: muscle spasms ([2]; ITT population): 40% | treatment-related toxicity per patient: nausea ([2]; ITT population): 47% | treatment-related toxicity per patient: peripheral oedema ([2]; ITT population): 20% | treatment-related toxicity per patient: pruritus ([2]; ITT population): 33% | treatment-related toxicity per patient: upper abdominal pain ([2]; ITT population): 23% | treatment-related toxicity per patient: vomiting ([2]; ITT population): 23% | Abdominal Pain Upper, All causalities, All grades ([2]; N = 30): 9 (30.0%) Number (%) of patients | Abdominal Pain, All causalities, All grades ([2]; N = 30): 16 (53.3%) Number (%) of patients | Abdominal Pain, All causalities, G3 + G4 ([2]; N = 30): 2 (6.7%) Number (%) of patients | Anaemia, All causalities, All grades ([2]; N = 30): 6 (20.0%) Number (%) of patients | Anaemia, All causalities, G3 + G4 ([2]; N = 30): 1 (3.3%) Number (%) of patients | Asthenia, All causalities, All grades ([2]; N = 30): 27 (90.0%) Number (%) of patients | Asthenia, All causalities, G3 + G4 ([2]; N = 30): 1 (3.3%) Number (%) of patients | Diarrhoea, All causalities, All grades ([2]; N = 30): 18 (60.0%) Number (%) of patients | Diarrhoea, All causalities, G3 + G4 ([2]; N = 30): 1 (3.3%) Number (%) of patients | Dry Skin, All causalities, All grades ([2]; N = 30): 4 (13.3%) Number (%) of patients | Erythema, All causalities, All grades ([2]; N = 30): 6 (20.0%) Number (%) of patients | Eye Oedema, All causalities, All grades ([2]; N = 30): 14 (46.7%) Number (%) of patients | Eye Oedema, All causalities, G3 + G4 ([2]; N = 30): 1 (3.3%) Number (%) of patients | Eyelid Oedema, All causalities, All grades ([2]; N = 30): 7 (23.3%) Number (%) of patients | Lacrimation Increased, All causalities, All grades ([2]; N = 30): 4 (13.3%) Number (%) of patients | Mucosal Inflammation, All causalities, All grades ([2]; N = 30): 5 (16.7%) Number (%) of patients | Mucosal Inflammation, All causalities, G3 + G4 ([2]; N = 30): 1 (3.3%) Number (%) of patients | Muscle Spasms, All causalities, All grades ([2]; N = 30): 12 (40.0%) Number (%) of patients | Myalgia, All causalities, All grades ([2]; N = 30): 4 (13.3%) Number (%) of patients | Nausea, All causalities, All grades ([2]; N = 30): 15 (50.0%) Number (%) of patients | Neutropenia, All causalities, All grades ([2]; N = 30): 5 (16.7%) Number (%) of patients | Neutropenia, All causalities, G3 + G4 ([2]; N = 30): 2 (6.7%) Number (%) of patients | Oedema Peripheral, All causalities, All grades ([2]; N = 30): 8 (26.7%) Number (%) of patients | Pruritus, All causalities, All grades ([2]; N = 30): 11 (36.7%) Number (%) of patients | Pruritus, All causalities, G3 + G4 ([2]; N = 30): 1 (3.3%) Number (%) of patients | Rash, All causalities, All grades ([2]; N = 30): 12 (40.0%) Number (%) of patients | Rash, All causalities, G3 + G4 ([2]; N = 30): 3 (10.0%) Number (%) of patients | Vomiting, All causalities, All grades ([2]; N = 30): 10 (33.3%) Number (%) of patients | Abdominal Pain Upper, Suspected, All grades [2, 3]: 7 (23.3%) Number (%) of patients | Abdominal Pain, Suspected, All grades [2, 3]: 10 (33.3%) Number (%) of patients | Abdominal Pain, Suspected, G3 + G4 [2, 3]: 1 (3.3%) Number (%) of patients | Anaemia, Suspected, All grades [2, 3]: 4 (13.3%) Number (%) of patients | Anaemia, Suspected, G3 + G4 [2, 3]: 1 (3.3%) Number (%) of patients | Asthenia, Suspected, All grades [2, 3]: 25 (83.3%) Number (%) of patients | Asthenia, Suspected, G3 + G4 [2, 3]: 1 (3.3%) Number (%) of patients | Diarrhoea, Suspected, All grades [2, 3]: 17 (56.7%) Number (%) of patients | Diarrhoea, Suspected, G3 + G4 [2, 3]: 1 (3.3%) Number (%) of patients | Dry Skin, Suspected, All grades [2, 3]: 4 (13.3%) Number (%) of patients | Erythema, Suspected, All grades [2, 3]: 5 (16.7%) Number (%) of patients | Eye Oedema, Suspected, All grades [2, 3]: 14 (46.7%) Number (%) of patients | Eye Oedema, Suspected, G3 + G4 [2, 3]: 1 (3.3%) Number (%) of patients | Eyelid Oedema, Suspected, All grades [2, 3]: 7 (23.3%) Number (%) of patients | Lacrimation Increased, Suspected, All grades [2, 3]: 4 (13.3%) Number (%) of patients | Mucosal Inflammation, Suspected, All grades [2, 3]: 5 (16.7%) Number (%) of patients | Mucosal Inflammation, Suspected, G3 + G4 [2, 3]: 1 (3.3%) Number (%) of patients | Muscle Spasms, Suspected, All grades [2, 3]: 12 (40.0%) Number (%) of patients | Myalgia, Suspected, All grades [2, 3]: 4 (13.3%) Number (%) of patients | Nausea, Suspected, All grades [2, 3]: 14 (46.7%) Number (%) of patients | Neutropenia, Suspected, All grades [2, 3]: 5 (16.7%) Number (%) of patients | Neutropenia, Suspected, G3 + G4 [2, 3]: 2 (6.7%) Number (%) of patients | Oedema Peripheral, Suspected, All grades [2, 3]: 6 (20.0%) Number (%) of patients | Pruritus, Suspected, All grades [2, 3]: 10 (33.3%) Number (%) of patients | Pruritus, Suspected, G3 + G4 [2, 3]: 1 (3.3%) Number (%) of patients | Rash, Suspected, All grades [2, 3]: 12 (40.0%) Number (%) of patients | Rash, Suspected, G3 + G4 [2, 3]: 3 (10.0%) Number (%) of patients | Vomiting, Suspected, All grades [2, 3]: 7 (23.3%) Number (%) of patients | cardiac side-effects ([2]; human, in vivo): no cardiac side-effects have been observed | total number of serious adverse events (SAE) ([2]; in 8/30 patients): 14 | patients with dose reduced by 100 or 200 mg/day following grade 3-4 AEs ([2]; six patients): 20% | number of treatment-related SAE ([2]; worsening of a concomitant psoriasis and anaemia): three | IC50 (Human Kit exon 9): 100 nM
